Measurements reported in patent publication US20090214514A1, “GUS3 NEUROPEPTIDES FOR REGULATING HYPOTHALAMIC FUNCTION” (priority 2004, published 2009).
No end group written: not given here.

Assay: Standard 24-hour thirst assay: acute effect of icv GUS3 peptides on food and water intake
Format: in vivo, Sprague Dawley rats
Settings: rats thirsted 24 h, not food deprived, single ICV injection in 5 uL vehicle 15 min before reintroduction of water, intake recorded at 30 min, 60 min, 2 h, 3 h; for effect on food intake: vs vehicle (FIG. 8A); for effect on water intake: vs vehicle (FIG. 8B)
Experimental: Animals are injected with the substances after a 24 hr thirst period and food and water intake is monitored at 30 minutes, 60 minutes, 2 hours, 3 hours, and 24 hours.
Thirty-six regular Sprague Dawley rats (Charles River, Germany) weighing approximately 250 gram at the start of the experiment were used for these experiments. All animals were kept under a 12/12 L/D cycle (lights on at 0300) and in temperature and humidity controlled rooms. The animals were allowed a 5 day acclimatisation period after arrival to the test facility in order to reduce stress effects.
All experiments are conducted in accordance with internationally accepted principles for the care and use of laboratory animals and are approved by the Danish committee for animal research. Under Hypnorm Dormicum (Nomeco A/S, Copenhagen Denmark) anesthesia all animals were stereotaxically equipped with a stainless steel cannula aimed at the lateral ventricle (1 mm caudal and 1.5 mm lateral from bregma and 4 mm depth). During a 7 day recovery period, the rats were handled daily in order to accustom them to the experimental procedure.
The following peptides were ordered from Schafer-N, Copenhagen (see also example 2):
The animals were divided into 4 weight-matched groups prior to the test: • Group 4 Vehicle control (5 μL PBS) • Group 3 GUS3 C (10 ug) icv in 5 uL vehicle • Group 2 GUS3 M (1 ug) icv in 5 uL vehicle • Group 1 GUS3 N (10 ug) icv in 5 uL vehicle
The rats were thirsted but not food deprived twenty-four hours before the experiment. Fifteen minutes prior to reintroduction of water (time=0) the animals received an ICV injection of […] of one of the 3 peptides dissolved in 5 μL vehicle or of vehicle alone. Water and food intake was recorded at time=30 minutes, 60 minutes, 2 hour, 3 hours and 24 hours.
The data are evaluated by relevant statistical analyses (Statview software). Results are presented as mean±SEM (standard error of the mean). Statistical evaluation of the data is carried out using one-way analysis of variance (ANOVA) with appropriate post-hoc analysis between control and treatment groups in cases where statistical significance is established (p<0.05; Scheffe or Bonferoni).

ac-QFLKEGQLAAGTCEIVTLDRDSSQP (Ac-QFLKEGQLAAGTCEIVTLDRDSSQP; listed as Homo sapiens) [GUS3 N]
effect on food intake: did not seem to affect
effect on water intake: did not seem to affect

TIARQTARCAC (listed as Homo sapiens) [GUS3 M]
effect on food intake: did not seem to affect
effect on water intake: did not seem to affect
